#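 In this assay, cells in 96-well plates receive the compound at five concentrations for 48 hours. Endpoints are linearly interpolated between the surrounding concentrations. Definition used: TGI = concentration required for complete inhibition of growth.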
# Assays:
# Experiment in all cases: NCI anticancer screen, dose series, 48 h
# [1] = test system: NCI-H522 lung
# [2] = test system: U251 CNS
# [3] = test system: SF-295 CNS
# [4] = test system: SF-539 CNS
# [5] = test system: MOLT-4 leukemia
# [6] = test system: OVCAR-4 ovarian
# [7] = test system: UACC-62 melanoma
# [8] = test system: NCI-H226 lung
# [9] = test system: SK-OV-3 ovarian
# [10] = test system: NCI-H23 lung
# [11] = test system: M14 melanoma
# [12] = test system: IGROV1 ovarian
# [13] = test system: DU-145 prostate
# [14] = test system: MDA-MB-231 breast
# [15] = test system: HT29 colon
# [16] = test system: SNB-75 CNS
# [17] = test system: CCRF-CEM leukemia
# [18] = test system: OVCAR-3 ovarian
# [19] = test system: HOP-92 NSCLC
# [20] = test system: A498 renal
Structure (SMILES),TGI [1] [µM],TGI [2] [µM],TGI [3] [µM],TGI [4] [µM],TGI [5] [µM],TGI [6] [µM],TGI [7] [µM],TGI [8] [µM],TGI [9] [µM],TGI [10] [µM],TGI [11] [µM],TGI [12] [µM],TGI [13] [µM],TGI [14] [µM],TGI [15] [µM],TGI [16] [µM],TGI [17] [µM],TGI [18] [µM],TGI [19] [µM],TGI [20] [µM]
CC(C)(C)c1cc(C(=O)Nc2cc(Br)c(Br)cc2S(N)(=O)=O)cc(C(C)(C)C)c1O,24.3,26.6,27.7,32.7,18.8,28.7,23.1,29.3,31.3,40,35.9,26.6,29.2,26.4,16.2,21.5,26.6,21.1,–,–
ON/N=C/c1cc2c(cc1Br)OCO2,> 386,> 386,> 386,> 386,> 386,–,> 386,> 386,> 386,> 386,–,> 386,–,–,> 386,–,> 386,> 386,> 386,–
NCC(=O)NC1(c2cc3ccccc3s2)CCCCC1,> 100,–,> 100,> 100,–,> 100,44.5,69.5,> 100,> 100,34,> 100,> 100,–,54.8,83.7,59.5,> 100,78.1,> 100
O=C(/C=C/c1ccc(OCCCOc2ccc(/C=C/C(=O)c3ccccc3)cc2)cc1)c1ccccc1,–,–,> 100,> 100,> 100,> 100,> 100,> 100,–,> 100,> 100,> 100,–,–,> 100,> 100,> 100,> 100,–,> 100
OC1[C@H]([C@H]2CCCC[C@@H]2O)CCC[C@@H]1[C@@H]1CCCC[C@H]1O (some centres not stated),> 100,> 100,> 100,> 100,> 100,> 100,> 100,> 100,> 100,> 100,> 100,> 100,–,–,> 100,> 100,> 100,> 100,> 100,> 100
COc1cc2c[n+](C)c3c4cc(OC)c(OC)cc4c(OC)cc3c2cc1OC,2.03,> 51.8,> 100,> 100,–,> 69.5,> 100,–,> 100,36.8,> 100,–,> 65.3,19.8,> 46.7,> 95.1,> 100,> 34.6,–,> 100
O=P1(O)C=CC2(CCCC2)O1,> 100,> 100,> 100,> 100,–,> 100,> 100,–,> 100,> 100,> 100,> 100,> 100,–,> 100,> 100,–,> 100,> 100,> 100
COc1ccc(Oc2cccc(/C=C3/C(=O)Nc4ccccc43)c2)cc1,19.6,14.2,19.9,33.1,13,27,–,–,31,16.2,24.3,20.9,27.1,–,12.9,28.3,22.1,21.6,14.3,25.4
CCC(C)n1c(C)nc2c1C(=O)c1ccccc1C2=O (configuration not stated),> 100,> 100,> 100,> 100,> 100,> 100,> 100,> 100,> 100,> 100,> 100,> 100,–,–,> 100,> 100,> 100,> 100,> 100,–
C=C(C)C(=O)O[C@H]1C/C(CO)=C/CCC(=C)C(OC(C)=O)[C@H]2OC(=O)C(=C)[C@H]12 (some centres not stated),11,35.8,91.4,33.6,17.2,–,23,> 100,> 100,25,12.5,48.2,37.4,25.4,21.7,9.12,6.2,18.7,–,43
CC(=O)[C@@H]1[C@@H](OC(=O)CCC(C)COC2OC(CO)C(O)C(O)C2O)C[C@H]2[C@@H]3CC=C4C[C@@H](OC5OC(CO)C(OC6OC(C)C(O)C(O)C6O)C(O)C5OC5OC(C)C(O)C(O)C5O)CC[C@]4(C)[C@H]3CC[C@]12C (some centres not stated),97,> 100,> 100,–,> 100,> 100,> 100,–,> 100,> 100,> 100,–,> 100,> 100,–,> 100,> 100,> 100,–,> 100
CCOC(=O)Nc1cc2nnc(-c3ccccc3)nc2c(N)n1,–,> 100,15.2,61.9,–,69.2,> 100,71.8,39.9,64.2,> 100,> 100,–,–,25.7,61.6,> 100,48.8,85.2,–
C=CCn1c(=O)c2ccccc2[n+]2c(C)c(C(=O)OCC)sc12,> 100,> 100,> 100,> 100,> 100,> 100,> 100,> 100,> 100,> 100,> 100,> 100,> 100,> 100,> 100,–,> 100,> 100,–,–
CCc1ccc(N=Cc2cc(OC)c(OC)c(OC)c2)cc1,> 100,> 100,> 100,> 100,> 100,> 100,> 100,–,> 100,> 100,> 100,> 100,–,–,> 100,> 100,> 100,> 100,> 100,> 100
O=c1cc(NCCCCCO)[nH]c(=O)[nH]1,> 100,> 100,> 100,> 100,> 100,> 100,> 100,> 100,> 100,> 100,> 100,> 100,–,> 100,> 100,> 100,> 100,> 100,> 100,> 100
CC(=O)OC12/C(=N/O)CCCCCC1c1ccccc12 (configuration not stated),98.9,> 100,> 100,–,> 100,> 100,> 100,> 100,> 100,> 100,–,–,–,–,> 100,> 100,92.3,–,–,–
Cc1ccc(S(=O)(=O)c2c(N)c3nc4ccccc4n3c3nc4ccccc4nc23)cc1,> 100,> 100,> 100,> 100,> 100,> 100,> 100,> 100,> 100,> 100,> 100,> 100,–,–,> 100,> 100,> 100,> 100,–,–
CN(C)CCOc1cccc2c1C(=O)c1ccccc1C2=O,20.5,72.5,29.3,22.6,21.5,20.4,29.8,22.2,81.2,24,26.3,43.4,–,–,28.7,28.8,64.9,64,29,33.3
Cc1cn(Cc2ccccc2CCO)c(=S)[nH]c1=O,> 100,> 100,> 100,> 100,> 100,> 100,> 100,> 100,> 100,> 100,> 100,> 100,–,–,> 100,> 100,> 100,> 100,> 100,> 100
COc1ccc(/C=C2\CCC(C)C3=C(c4ccc(OC)c(OC)c4)C(C#N)=C(N)OC32)cc1OC (configuration not stated),–,> 100,75.9,–,–,–,7.34,9.83,36.4,13.6,15,9.45,> 100,17.5,–,8.63,19.2,48.3,–,51.9
O=C(Nc1c(O)[nH]c(=S)[nH]c1=O)c1ccccc1F,> 100,> 100,> 100,> 100,> 100,> 100,> 100,> 100,> 100,> 100,> 100,> 100,–,–,> 100,> 100,> 100,> 100,> 100,> 100
COc1ccc(C2=CC(c3ccccc3)n3nnnc3N2)cc1 (configuration not stated),> 100,> 100,> 100,> 100,> 100,–,> 100,> 100,> 100,> 100,> 100,> 100,> 100,> 100,> 100,–,> 100,> 100,–,–
O=C(Nc1nnc(-c2ccccc2)o1)C(SC(=S)N1CCCCC1)c1ccccc1 (configuration not stated),97.6,87.2,> 100,71.3,> 100,> 100,–,93.5,> 100,30.7,27.4,> 100,71.6,> 100,70,> 100,14.1,43.4,–,73.9
Cc1ccccc1C(=O)c1c(O)c2c(c(O)c1Br)CCCC2,23.4,31.5,47.9,33.4,31.4,28.9,29,58.4,43.6,58.4,29.1,42.6,–,–,66.6,34.8,–,27.1,40,43.7
CC1(C)CCC[C@@]2(C)C1CCC1(C)C(CCc3ccoc3)/C(=C/OS(=O)(=O)O)CCC12 (some centres not stated) (tested in a mixture with another compound),–,> 100,> 100,> 100,79.7,> 100,> 100,> 100,> 100,> 100,> 100,> 100,–,–,> 100,> 100,> 100,> 100,63.2,> 100
C/C(CN1C(=O)c2ccccc2C1=O)=N\NS(=O)(=O)c1ccc(C)cc1,> 100,> 100,> 100,> 100,> 100,> 100,> 100,> 100,> 100,> 100,> 100,> 100,–,–,> 100,> 100,> 100,> 100,–,> 100
CCOC(=O)c1c2c3c(cccc3[nH]c1=O)Sc1ncccc1-2,83.8,67.3,95.3,> 100,68.5,> 100,35.2,66.5,> 100,86.3,> 100,61,> 100,> 100,94.9,> 100,> 100,> 100,–,–

# — PubChem BioAssay (NCI)
